Measured values: patent publication US10034886B2, “GLP-1 receptor modulators” (Celgene International II SÀRL, priority 2014, dated 2018)

Each molecule was assayed against T1, GLP-1R (Homo sapiens, UniProt P43220) (assay: EC20 GLP-1(9-36) PAM cAMP assay: dose response of compound in the presence of fixed concentration of GLP-1(9-36)). Conditions: GLP-1R CRE-bla CHO-K1 cells, compound dose response with fixed concentration of GLP-1(9-36), read-out: EC20 GLP-1(9-36) PAM EC50.
T1 construct: host or cells: GLP-1R CRE-bla CHO-K1 cells
Type: cell-based
In short: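 Positive allosteric modulation read as cAMP accumulation: compound titrations (12 points) combined with an EC20 level of GLP-1(9-36) on CHO-K1 GLP-1R CRE-bla cells, IBMX present, 30 min, 37 °C, pH 7.4 buffer. Luminescence converted to cAMP via standards; non-linear fit gave EC50 and Emax.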

T1 sequence (P43220 24-463): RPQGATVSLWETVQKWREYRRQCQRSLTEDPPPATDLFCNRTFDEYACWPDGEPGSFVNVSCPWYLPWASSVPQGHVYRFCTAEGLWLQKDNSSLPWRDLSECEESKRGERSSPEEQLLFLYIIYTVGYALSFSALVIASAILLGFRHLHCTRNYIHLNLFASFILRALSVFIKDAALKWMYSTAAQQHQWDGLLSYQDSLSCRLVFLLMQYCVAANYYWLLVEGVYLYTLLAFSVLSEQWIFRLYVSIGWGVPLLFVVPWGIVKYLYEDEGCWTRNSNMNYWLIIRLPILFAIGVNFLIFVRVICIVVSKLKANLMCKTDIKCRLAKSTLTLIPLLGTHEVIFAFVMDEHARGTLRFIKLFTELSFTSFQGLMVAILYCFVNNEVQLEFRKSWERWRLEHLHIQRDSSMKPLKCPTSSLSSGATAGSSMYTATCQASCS
T1 sequence (P01275 100-127 partner limits assumed): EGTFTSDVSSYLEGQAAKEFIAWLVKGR

EC50 [µM] | Compound
2.5 to 5 | C[C@@H](NC(=O)[C@H](Cc1ccc(-c2ncc(-c3ccc(-c4ccnn4C)cc3)cn2)cc1)NC(=O)c1ccc(C(C)(C)C)s1)C(=O)O [Compound 1297]
0.8 to 2.5 | C[C@@H](NC(=O)[C@H](Cc1ccc(-c2ncc(-c3ccc4c(c3)C(C)(C)c3ccccc3-4)cn2)cc1)NC(=O)c1ccc(C(C)(C)C)s1)C(=O)O [Compound 1304]
< 0.8 | C=C(N[C@H](Cc1ccccc1)C(=O)O)[C@H](Cc1ccc(-c2ncc(N3CCC([C@H]4CC[C@H](CCC)CC4)CC3)cn2)cc1)NC(=O)c1ccc(C(C)(C)C)s1 [Compound 1464]
< 0.8 | CC(C)(C)c1ccc(C2CCN(c3cnc(-c4ccc(C[C@H](NC(=O)c5ccc(C(C)(C)C)s5)C(=O)N5CC(C(=O)O)C5)cc4)nc3)CC2)cc1 [Compound 1493]
< 0.8 | CCc1ccc(-c2ccc(-c3cnc(-c4ccc(C[C@H](NC(=O)c5ccc(C(C)(C)C)s5)C(=O)N[C@H](C)C(=O)O)cc4)nc3)cc2)cc1 [Compound 1286]
0.8 to 2.5 | Cc1cc(F)ccc1-c1ccc(-c2cnc(-c3ccc(C[C@H](NC(=O)c4ccc(C(C)(C)C)s4)C(=O)N4CC(C(=O)O)C4)cc3)nc2)c(F)c1 [Compound 1206]
5 to 10 | CC(C)(C)c1ccc(C(=O)N[C@@H](Cc2ccc(-c3ncc(-c4ccc(-c5cccc(C#N)c5)cc4F)cn3)cc2)C(=O)N2CC(C(=O)O)C2)s1 [Compound 1202]
< 0.8 | CCC[C@H]1CC[C@H](C2CCN(c3cnc(-c4ccc(CC(NC(=O)c5ccc(C(C)(C)C)s5)C(=O)NS(=O)(=O)CC(C)(C)C)cc4)nc3)CC2)CC1 (some centres unmarked) [Compound 1544]
< 0.8 | CC(=O)c1ccc(-c2ccc(-c3cnc(-c4ccc(C[C@H](NC(=O)c5ccc(C(C)(C)C)s5)C(=O)N[C@H](C)C(=O)O)cc4)nc3)cc2)cc1 [Compound 1292]
< 0.8 | CCC[C@H]1CC[C@H](c2ccc(-c3cnc(-c4ccc(C[C@H](NC(=O)c5ccc(C(C)(C)C)s5)C(=O)N5CC(C(=O)O)C5)cc4)nc3)cc2)CC1 [Compound 1343, 1-((S)-2-(5-(tert-butyl)thiophene-2-carboxamido)-3-(4-(5-(4-((1s,4r)-4-propylcyclohexyl)phenyl)pyrimidin-2-yl)phenyl)propanoyl)azetidine-3-carboxylic acid]
< 0.8 | Cc1cc(-c2ccc(-c3cnc(-c4ccc(C[C@H](NC(=O)c5ccc(C(C)(C)C)s5)C(=O)N5CC(C(=O)O)C5)cc4)nc3)c(F)c2)ccc1C(F)(F)F [Compound 1225]
< 0.8 | CCC[C@H]1CC[C@H](C2CCN(c3cnc(-c4ccc(C[C@H](NC(=O)c5cnc(C(C)(C)C)s5)C(=O)N5CC(C(=O)O)C5)cc4)nc3)CC2)CC1 [Compound 1537]
0.8 to 2.5 | CC[C@H]1CC[C@H](c2ccc(-c3cnc(-c4ccc(C[C@H](NC(=O)c5ccc(OC(C)C)cc5)C(=O)O)cc4)nc3)cc2)CC1 [Compound 1382]
< 0.8 | CCC[C@H]1CC[C@H](C2CCN(c3cnc(-c4ccc(CC(NC(=O)c5ccc(C(C)(C)C)s5)C(=O)NS(=O)(=O)CC(F)(F)F)cc4)nc3)CC2)CC1 (some centres unmarked) [Compound 1550]

Same assay, conditions: dose response of compound in presence of fixed concentration of GLP-1(9-36), GLP-1R CRE-bla CHO-K1 cells, read-out: EC20 GLP-1(9-36) PAM EC50

EC50 [µM] | Compound
0.8 to 2.5 | CC(C)(C)c1ccc(C(=O)N[C@@H](Cc2ccc(-c3ncc(-c4ccc(OC5CCCC5)cc4)cn3)cc2)C(=O)N2CC(C(=O)O)C2)s1 [Compound 779]
0.8 to 2.5 | CC(C)CCOc1ccc(-c2cnc(-c3ccc(C[C@H](NC(=O)c4ccc(C(C)(C)C)s4)C(=O)N4CC(C(=O)O)C4)cc3)nc2)cc1 [Compound 799]
< 0.8 | CC[C@H]1CC[C@H](c2ccc(-c3cnc(-c4ccc(C[C@H](NC(=O)c5ccc(CC(C)C)cc5)C(=O)N5CC(C(=O)O)C5)cc4)nc3)cc2)CC1 [Compound 1155]
0.8 to 2.5 | CCCCCCCOc1ccc(-c2cnc(-c3ccc(C[C@H](NC(=O)c4ccc(CC(C)C)s4)C(=O)N4CC(C(=O)O)C4)cc3)nc2)cc1 [Compound 1119]
0.8 to 2.5 | C[C@@H](NC(=O)[C@H](Cc1ccc(-c2ncc(-c3ncc(-c4ccccc4)cn3)cn2)cc1)NC(=O)c1ccc(C(C)(C)C)s1)C(=O)O [Compound 1132]
< 0.8 | CC(C)(C)c1ccc(C(=O)N[C@@H](Cc2ccc(-c3ncc(-c4ccc([C@H]5CC[C@@H](C(F)(F)F)CC5)cc4)cn3)cc2)C(=O)N2CC(C(=O)O)C2)s1 [Compound 1185]
< 0.8 | CCCCCCCOc1ccc(-c2cnc(-c3ccc(C[C@H](NC(=O)c4ccc(C(C)(C)C)s4)C(=O)N[C@@H](CC(=O)NS(C)(=O)=O)C(=O)O)cc3)nc2)cc1 [Compound 523]
0.8 to 2.5 | CC(C)CCCCOc1ccc(-c2cnc(-c3ccc(C[C@H](NC(=O)c4ccc(C(C)(C)C)cc4)C(=O)N[C@H](C)C(=O)O)cc3)nc2)cc1 [Compound 792]
2.5 to 5 | C[C@@H](NC(=O)[C@H](Cc1ccc(-c2ncc(-c3ccc(OCc4ccccc4)c(Cl)c3)cn2)cc1)NC(=O)c1ccc(C(C)(C)C)s1)C(=O)O [Compound 1001]
0.8 to 2.5 | CCCCCCCOc1ccc(-c2cnc(-c3ccc(C[C@H](NC(=O)c4ccc(C(C)(C)C)c(OC)c4)C(=O)N4CC[C@H](C(=O)O)C4)cc3)nc2)cc1 [Compound 862]
2.5 to 5 | CCCCCCCOc1ccc(-c2cnc(-c3ccc(C[C@H](NC(=O)c4ccc(C(C)(C)C)cc4)C(=O)N4CCC(C(=O)O)CC4)cc3)nc2)cc1 [Compound 578]
5 to 10 | CCCCCOc1ccc(-c2cnc(-c3ccc(C[C@H](NC(=O)c4ccc(C(C)(C)C)cc4)C(=O)NCCC(=O)O)cc3)nc2)cc1 [Compound 710]
2.5 to 5 | CCCCCCCOc1ccc(-c2cnc(-c3ccc(C[C@H](NC(=O)c4ccc(C(C)(C)C)s4)C(=O)NCCCN4CCN(C)CC4)cc3)nc2)cc1 [Compound 961]
< 0.8 | CCCCCCCOc1ccc(-c2cnc(-c3ccc(C[C@H](NC(=O)c4ccc(C(C)(C)C)s4)C(=O)NS(=O)(=O)CC(=O)OC)cc3)nc2)cc1 [Compound 422, methyl (S)-2-(N-(2-(5-(tert-butyl)thiophene-2-carboxamido)-3-(4-(5-(4-(heptyloxy)phenyl)pyrimidin-2-yl)phenyl)propanoyl)sulfamoyl)acetate]
< 0.8 | CCCCCCCOc1ccc(-c2cnc(-c3ccc(CC(NC(=O)c4ccc(C(C)(C)C)s4)C(=O)N[C@@H](Cc4c[nH]c5ccccc45)C(=O)O)cc3)nc2)cc1 (some centres unmarked) [Compound 432]
5 to 10 | CCCCCCCOc1ccc(-c2cnc(-c3ccc(C[C@H](NC(=O)c4ccc(C(C)(C)C)cc4)C(=O)NCC(CC4CCOCC4)C(=O)O)cc3)nc2)cc1 (some centres unmarked) [Compound 559]
0.8 to 2.5 | CC(C)(C)c1ccc(C(=O)N[C@@H](Cc2ccc(-c3ncc(-c4ccc(OCC5CCCC5)cc4)cn3)cc2)C(=O)NC(C(=O)O)C(O)c2ccccc2)s1 (some centres unmarked) [Compound 940]

EC50 [µM] | Compound
0.8 to 2.5 | CCCCCCCCOc1ccc(-c2cnc(-c3ccc(C[C@H](NC(=O)c4ccc(C(C)(C)C)s4)C(=O)NC(C(=O)O)C(O)c4ccccc4)cc3)nc2)cc1 (some centres unmarked) [Compound 926]
< 0.8 | CCCCCCCOc1ccc(-c2cnc(-c3ccc(C[C@H](NC(=O)c4ccc(C(C)(C)C)cc4)C(=O)N[C@H](C)C(=O)O)cc3)nc2)cc1 [Compound 398, (R)-2-((S)-2-(4-(tert-butyl)benzamido)-3-(4-(5-(4-(heptyloxy)phenyl)pyrimidin-2-yl)phenyl)propanamido)propanoic acid]
2.5 to 5 | CC(C)COc1ccc(-c2cnc(-c3ccc(C[C@H](NC(=O)c4ccc(C(C)(C)C)s4)C(=O)N4CC(C(=O)O)C4)cc3)nc2)cc1 [Compound 789]
2.5 to 5 | CCCCCCCOc1ccc(-c2cnc(-c3ccc(C[C@H](NC(=O)c4ccc(OCC)cc4)C(=O)N4CC[C@H](C(=O)O)C4)cc3)nc2)cc1 [Compound 848]
< 0.8 | CC[C@H]1CC[C@H](c2ccc(-c3cnc(-c4ccc(C[C@H](NC(=O)c5ccc(C6CC6)cc5)C(=O)N5CC(C(=O)O)C5)cc4)nc3)cc2)CC1 [Compound 1158]
< 0.8 | CCCCCCCOc1ccc(-c2cnc(-c3ccc(C[C@H](NC(=O)c4ccc(C(C)(C)C)s4)C(=O)N[C@@H](CC(=O)O)C(=O)NC)cc3)nc2)cc1 [Compound 526]
2.5 to 5 | CCCCCc1noc(-c2cnc(-c3ccc(C[C@H](NC(=O)c4ccc(C(C)(C)C)cc4)C(=O)NCCC(=O)O)cc3)nc2)n1 [Compound 753]
2.5 to 5 | CCCCCCCOc1ccc(-c2cnc(-c3ccc(C[C@H](NC(=O)c4ccc(C(C)(C)C)s4)C(=O)NCC(C)O)cc3)nc2)cc1 (some centres unmarked) [Compound 388]
< 0.8 | CC[C@H]1CC[C@H](c2ccc(-c3cnc(-c4ccc(C[C@H](NC(=O)c5ccc(C(C)(C)C)cc5)C(=O)N5CC(C(=O)O)C5)cc4)nc3)cc2)CC1 [Compound 1170]
0.8 to 2.5 | CCCCCCCOc1ccc(-c2cnc(-c3ccc(C[C@H](NC(=O)c4ccc(C(C)(C)C)cc4)C(=O)NCCC(=O)O)cc3)nc2)cc1C1CC1 [Compound 704]
2.5 to 5 | C[C@@H](NC(=O)[C@H](Cc1ccc(-c2ncc(-c3ccc4c(C5CCCCO5)c(O)ccc4c3)cn2)cc1)NC(=O)c1ccc(C(C)(C)C)s1)C(=O)O (some centres unmarked) [Compound 1031]
0.8 to 2.5 | CCCCCCCOc1ccc(-c2cnc(-c3ccc(C[C@H](NC(=O)c4ccc(C(C)(C)C)cc4)C(=O)N4CC[C@H](C(=O)O)C4)cc3)nc2)cc1 [Compound 632]
< 0.8 | C[C@@H](NC(=O)[C@H](Cc1ccc(-c2ncc(-c3ccc([C@H]4CC[C@H](C(C)(C)C)CC4)cc3)cn2)cc1)NC(=O)c1ccc(C(C)(C)C)s1)C(=O)O [Compound 1143]
< 0.8 | CCCCCCCOc1ccc(-c2cnc(-c3ccc(CC(NC(=O)c4ccc(C(C)(C)C)s4)C(=O)N[C@H](C(=O)O)[C@@H](C)CC)cc3)nc2)cc1 (some centres unmarked) [Compound 414]
0.8 to 2.5 | CCC/C=C/CCOc1ccc(-c2cnc(-c3ccc(C[C@H](NC(=O)c4ccc(C(C)(C)C)cc4)C(=O)NCCC(=O)O)cc3)nc2)cc1 [Compound 716]
0.8 to 2.5 | CCCCCCCOc1ccc(-c2cnc(-c3ccc(C[C@H](NC(=O)c4ccc(C(C)(C)C)cc4)C(=O)NC(CCCC)C(=O)O)cc3)nc2)cc1 (some centres unmarked) [Compound 547]
